Drawing on US8685986B2, “Medical composition for treatment or prophylaxis of glaucoma” (Ube Industries, Ltd., priority 2009, dated 2014), this text covers EC50 and Ki for three molecules.

Test [1] concerns the target T1, human EP2 receptor (Homo sapiens (Human), UniProt P43116). The test can be described thus: Measurement of EP2 agonist activity (cAMP amount in HEK 293 cells). The format is cell-based. The conditions noted are these: cAMP increase in HEK 293 cells expressing human EP2 receptor, 30 minutes. The procedure: Measurement of EP2 agonist activity was carried out according to the method of Wilson et al. (European Journal of Pharmacology, 501, 49 (2004)). HEK 293 cells (ES-562-C, available from Euroscreen S.A.) expressed human EP2 receptor were cultured in a MEM medium containing 10% FBS and seeded at 2×10^4 cells per each well of a 96-well plate. On the next day, the medium was replaced with serum-free MEM medium containing 3-isobutyl-1-methylxanthine (final concentration: 500 μM) and after culturing for 30 minutes, a test compound dissolved in dimethylsulfoxide was added followed by allowing to stand undisturbed in a carbon dioxide gas incubator. After 30 minutes, an amount of cAMP in the cells was measured with a cAMP Biotrak EIA System kit (available from GE Healthcare Bioscience).

For a further test, the target named is human EP4 receptor (Homo sapiens (Human), UniProt P35408). The test can be described thus: Measurement of EP4 receptor binding affinity ([3H]PGE2 displacement, membrane fraction of Chem-1 cells). The procedure:
(§1) With regard to EP3 and EP4 receptors, measurements of receptor binding affinity were carried out according to the following methods in the same manner as in Test example 1.
The membrane fraction was recovered on glass fiber filter paper (GF/B, available from Whatman PLC) pretreated with 0.3% polyethyleneimine by using a cell harvester (M30R, available from Brandel Inc.), and after washing with a buffer solution (50 mM HEPES-NaOH (pH 7.4), 500 mM NaCl, 0.1% BSA), radioactivity was measured with a liquid scintillation analyzer (2000CA, available from Packard). […] The dissociation constant (Kd value) was calculated by Scatchard analysis.

The target of the next test is human EP3 receptor (Homo sapiens (Human), UniProt P43115). As to the kind of experiment: Measurement of EP3 receptor binding affinity ([3H]PGE2 displacement, membrane fraction of Chem-1 cells). How it is done: as §1
Chain of human EP3 receptor (P43115 whole entry): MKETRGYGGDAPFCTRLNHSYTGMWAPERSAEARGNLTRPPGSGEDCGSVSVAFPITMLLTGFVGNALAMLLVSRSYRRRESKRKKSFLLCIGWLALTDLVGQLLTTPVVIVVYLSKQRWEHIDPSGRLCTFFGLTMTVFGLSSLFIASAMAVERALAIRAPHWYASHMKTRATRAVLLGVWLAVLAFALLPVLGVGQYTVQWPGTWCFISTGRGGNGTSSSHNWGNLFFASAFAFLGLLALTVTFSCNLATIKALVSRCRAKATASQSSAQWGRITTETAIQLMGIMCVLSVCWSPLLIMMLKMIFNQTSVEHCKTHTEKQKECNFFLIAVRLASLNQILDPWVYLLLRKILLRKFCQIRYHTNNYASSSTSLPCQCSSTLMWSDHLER
The membrane fraction was recovered on glass fiber filter paper (GF/B, available from Whatman PLC) pretreated with 0.3% polyethyleneimine by using a cell harvester (M30R, available from Brandel Inc.), and after washing with a buffer solution (50 mM Tris-HCl (pH 7.4)), radioactivity was measured with a liquid scintillation analyzer (2000CA, available from Packard). […] The dissociation constant (Kd value) was calculated by Scatchard analysis.

The target of test [2] is T1, human EP2 receptor. As to the kind of experiment: Measurement of EP2 receptor binding affinity ([3H]PGE2 displacement, membrane fraction of HEK293 cells). The procedure: Measurement of EP2 receptor binding affinity was carried out according to the method of Abramovitz et al. (Biochimica et Biophysica Acta, 1483, 285 (2000)). […] The membrane fraction was recovered on glass fiber filter paper (GF/B, available from Whatman PLC) using a cell harvester (M30R, available from Brandel Inc.), and after washing with a buffer solution (10 mM MES-KOH (pH 6.0), 10 mM MgCl2), radioactivity was measured with a liquid scintillation analyzer (2000CA, available from Packard). […] The dissociation constant (Kd value) was calculated by Scatchard analysis.

SMILES strings stand for the structures. Where a name gives a salt, the structure may show the parent alone. Read-outs that look alike come from different tables or passages of the source. Some results are limits rather than exact numbers.

By EC50 is commonly meant the concentration giving half of the maximal effect. A low value points to an effect from little substance. The term Ki denotes the dissociation constant of the complex between target and ligand, obtained from inhibition or displacement.

Chain of human EP4 receptor (P35408 whole entry): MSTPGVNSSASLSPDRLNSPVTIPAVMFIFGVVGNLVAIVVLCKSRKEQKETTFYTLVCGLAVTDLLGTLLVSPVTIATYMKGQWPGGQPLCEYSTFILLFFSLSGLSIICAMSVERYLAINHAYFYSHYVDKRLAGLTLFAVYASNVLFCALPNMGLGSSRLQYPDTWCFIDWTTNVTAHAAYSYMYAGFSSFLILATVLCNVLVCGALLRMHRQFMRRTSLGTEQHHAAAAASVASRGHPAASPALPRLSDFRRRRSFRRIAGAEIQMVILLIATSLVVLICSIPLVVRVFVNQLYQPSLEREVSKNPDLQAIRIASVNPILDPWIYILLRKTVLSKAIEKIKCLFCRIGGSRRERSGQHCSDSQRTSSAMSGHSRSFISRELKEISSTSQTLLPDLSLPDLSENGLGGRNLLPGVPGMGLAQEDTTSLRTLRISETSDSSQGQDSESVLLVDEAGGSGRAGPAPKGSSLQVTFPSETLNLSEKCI
T1 sequence (P43116 whole entry): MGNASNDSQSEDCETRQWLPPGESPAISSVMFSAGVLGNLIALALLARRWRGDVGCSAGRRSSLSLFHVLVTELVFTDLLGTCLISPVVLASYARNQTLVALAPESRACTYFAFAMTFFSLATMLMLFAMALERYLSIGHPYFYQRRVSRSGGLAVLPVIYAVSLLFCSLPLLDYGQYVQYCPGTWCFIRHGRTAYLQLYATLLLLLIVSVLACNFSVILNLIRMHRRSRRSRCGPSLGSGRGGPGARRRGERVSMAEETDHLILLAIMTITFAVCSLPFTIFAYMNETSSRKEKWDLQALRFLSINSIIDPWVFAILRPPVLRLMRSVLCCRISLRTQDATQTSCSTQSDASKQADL

With `O=C(O)CNc1cccc(CN(Cc2ccc(-c3nccs3)cc2)S(=O)(=O)c2ccc(F)cc2)n1` [Example 4, (6-{(4-Fluorobenzenesulfonyl)[4-(thiazol-2-yl)benzyl]aminomethyl}pyridin-2-ylamino)acetic Acid], the response on human EP2 receptor [1] was half-maximal at 0.29 nM (EC50). The Ki is 2900 nM at human EP4 receptor, greater than 10000 nM at human EP3 receptor and 2.8 nM at human EP2 receptor [2] (read-out: Ki value of EP2 receptor binding affinity).

On to `O=C(O)CNc1cccc(CN(Cc2ccc(-c3nccs3)cc2)S(=O)(=O)c2ccccn2)n1` [Example 3], for which the EC50 on human EP2 receptor [1] was 0.45 nM. The Ki on human EP4 receptor ([3H]PGE2 1 nM, Chem-1 membrane fraction, Table 4) is 4800 nM; on human EP3 receptor ([3H]PGE2 2 nM, Chem-1 membrane fraction, Table 4), greater than 10000 nM; at human EP2 receptor [2] (PGE2 receptor selectivity, Table 4, read-out: EP2 receptor binding affinity Ki value) it was 1.9 nM; at human EP2 receptor [2] ([3H]PGE2 10 nM, HEK293 membrane fraction, Table 2, read-out: Ki value of EP2 receptor binding affinity), 1.9 nM.

For the molecule `O=C(O)CNc1cccc(CN(Cc2ccc(-c3nccs3)cc2)S(=O)(=O)c2cccnc2)n1` [Example 11, (6-{(Pyridin-3-ylsulfonyl)[4-(thiazol-2-yl)benzyl]aminomethyl}pyridin-2-ylamino)acetic Acid Trifluoroacetate], the Ki is 2800 nM at human EP4 receptor and greater than 10000 nM on human EP3 receptor.
